The series is described as follows: Solubility in water. The series is classed as physicochemical.

SMILES strings stand for the structures.

Usually solubility stands for how much of the substance goes into solution per volume. A lower solubility goes with a poorly soluble substance. In turn, `Cc1cccc2c1c(Cc1ccc(OCCCN3CCCC4(CCN(C(=O)CNC(=O)NCC(C)C)CC4)C3)cc1)cn2C1O[C@H](CO)[C@@H](O)[C@H](O)[C@H]1O` (stereo partly shown) [compound represented by formula (II)] showed a solubility below 2.3 mg/mL.
